In patent US7999137B2, “Pesticide bi-phenyl-amidine derivatives” (Bayer Cropscience AG, priority 2006, dated 2011):

Legend:
[1] = logP by HPLC on reversed-phase column (C 18), EEC Directive 79/831 Annex V.A8; format: physicochemical; settings: HPLC reversed-phase C 18; 40° C.; 0.1% aqueous formic acid and acetonitrile, linear gradient 10% to 90% acetonitrile
Method: Temperature: 40° C.; Mobile phases: 0.1% aqueous formic acid and acetonitrile; linear gradient from 10% acetonitrile to 90% acetonitrile.
Calibration was carried out using unbranched alkan-2-ones (comprising 3 to 16 carbon atoms) with known logP values (determination of the logP values by the retention times using linear interpolation between two successive alkanones).

Aedes aegypti larvae = test: In vivo protective test on Aedes aegypti (AEDSAE U), larvae mortality; settings: concentration and time not stated
Method: In Vivo Protective Test on Aedes Aegypti (AEDSAE U)
To produce a suitable preparation of the active compound, the active compound is mixed with the stated amount of solvent, and the concentrate is diluted with staining water to the desired concentration.
Aedes aegypti larvae are pipetted with a preparation of active ingredient of the desired concentration.
After the specified period of time, mortality in % is determined. 100% means that all larvae have been killed, a 0% means that none of the larvae have been killed.

Heliotis virescens = test: Test on Heliotis virescens (HELIVI spray application), egg mortality on soybean leaf sections; format: in vivo; settings: eggs on sprayed soybean leaf sections; concentration and time not stated
Text: Heliotis virescens—Test on Heliotis virescens (HELIVI Spray Application)
To produce a suitable preparation of the active compound, 1 part by weight of active compound is mixed with the stated amount of solvent and emulsifier, and the concentrate is dilutes with emulsifier-containing water to the desired concentration.
Soybean (Glycine max.) leaf sections are sprayed with a preparation of the active ingredient of the desired concentration. Once dry, the leaf sections are infested with eggs of cotton bollworm (Heliotis virescens).
After the specified period of time, mortality in % is determined. 100% means that all eggs have been killed and 0% means that none of the eggs have been killed.

Structure (SMILES) | log p (HCOOH) [1] | activity (mortality of larvae) (Aedes aegypti larvae) | activity (mortality of eggs) (Heliotis virescens)
CCN(C)C=Nc1ccc(-c2ccc(C=NOC)cc2)cc1F [Compound 77] | 1.73 | good activity | 
Cc1cc(-c2ccc(Cl)cc2)c(F)cc1N=CN(C)C(C)C [Compound 104] | 2.22 | good activity | 
CC(C)N(C)C=Nc1ccc(-c2ccc(OC(F)(F)F)cc2)c(Cl)c1 [Compound 105] | 2.42 | good activity | 
CCN(C)C=Nc1ccc(-c2ccc(C(F)(F)F)cc2)cc1C [Compound 127] | 2.17 | good activity | 
CCN(C)C=Nc1ccc(-c2ccc(C(C)(C)C)cc2)cc1C [Compound 129] | 2.67 | good activity | 
CCN(C)C=Nc1cc(C)c(-c2ccc(Oc3ccccc3)cc2)cc1C [Compound 47] | 2.56 | good activity | 
CCN(C)C=Nc1ccc(-c2ccc(C(F)(F)F)cc2)cc1F [Compound 26] | 1.87 | good activity | good activity
CCN(C)C=Nc1ccc(-c2ccc(Cl)c(C(F)(F)F)c2)cc1Cl [Compound 18] | 2.19 | good activity | 
CCN(C)C=Nc1cc(F)c(-c2ccc(Cl)cc2)cc1C [Compound 99] | 2.23 | good activity | 
Cc1cc(-c2ccc(C(C)(C)C)cc2)c(C)cc1N=CN1CCOCC1 [Compound 118] | 2.53 |  | 
CCN(C)C=Nc1ccc(-c2ccc(OC(F)(F)F)cc2)c(Cl)c1 [Compound 100] | 2.15 | good activity | 
CCN(C)C=Nc1ccc(-c2ccc(F)cc2)cc1C(F)(F)F [Compound 14] | 1.93 |  | 
Cc1cc(-c2ccc(C(C)(C)C)c(F)c2)c(C)cc1N=CN(C)C(C)C [Compound 169] | 2.74 |  | 
CCN(C)C=Nc1cc(C)c(-c2ccc(C3CCCCC3)cc2)cc1C [Compound 165] | 3.18 |  | 
CCN(C)C=Nc1ccc(-c2ccc(C(C)(C)C)cc2)cc1F [Compound 6] | 2.29 |  | 
CCN(C)C=Nc1cc(C)c(-c2cccc3ccccc23)cc1C [Compound 135] | 2.13 |  | 
Cc1cc(-c2ccc(C(C)(C)C)cc2)c(C)cc1N=C1CCCN1 [Compound 120] | 2.53 |  | 

Structure (SMILES) | log p (HCOOH) [1] | activity (mortality of larvae) (Aedes aegypti larvae) | activity (mortality of eggs) (Heliotis virescens)
CCN(C)C=Nc1cc(C)c(-c2ccc(C3CCCC3)cc2)cc1C [Compound 167] | 2.94 |  | 
CCN(C)C=Nc1ccc(-c2ccc(Cl)c(C(F)(F)F)c2)cc1C(F)(F)F [Compound 19] | 2.90 | good activity | 
CCN(C)C=Nc1ccc(-c2ccc(F)c(Cl)c2)cc1F [Compound 9] | 1.78 | good activity | 
CCN(C)C=Nc1cc(C)c(-c2ccc(C[Si](C)(C)C)cc2)cc1C [Compound 166] | 3.18 |  | 
CCN(C)C=Nc1cc(C)c(-c2ccc(OC)c(C)c2)cc1C [Compound 114] | 2.05 |  | 
CCN(C)C=Nc1cc(C)c(-c2ccc([Si](C)(C)C)cc2)cc1C [Compound 151] | 2.98 |  | 
CCCN(C)C=Nc1cc(C)c(-c2ccc(C(F)(F)F)c(Cl)c2)cc1C [Compound 143] | 2.69 |  | 
Cc1ccc(-c2cc(C)c(N=CN3CCCC3)cc2C)cc1Cl [Compound 150] | 2.37 |  | 
CCc1cc(-c2ccc(C(F)(F)F)cc2)ccc1N=CN(C)CC [Compound 27] | 2.20 |  | 
CCN(C)C=Nc1cc(C)c(-c2ccc(COC)cc2)cc1C [Compound 49] | 1.76 |  | 
CCc1cc(-c2ccc(Cl)c(Cl)c2)ccc1N=CN(C)CC [Compound 54] | 2.37 | good activity | 
CCc1cc(-c2ccc(C(C)(C)C)cc2)ccc1N=CN(C)CC [Compound 7] | 2.66 |  | 
CCN(C)C=Nc1cc(C)c(-c2ccc(OC(C)C)cc2)cc1C [Compound 170] | 2.18 |  | 
CCN(C)C=Nc1cc(C)c(-c2ccc(Cl)c(C(F)(F)F)c2)cc1C [Compound 17] | 2.40 |  | 
CCN(C)C=Nc1ccc(-c2cccc(Cl)c2)cc1C [Compound 128] | 2.01 | good activity | 
CCN(C)C=Nc1ccc(-c2ccc(C#N)cc2)cc1C [Compound 130] | 1.54 |  | 
Cc1cc(-c2ccc(F)cc2)c(C)cc1N=C1NCCN1 [Compound 124] | 1.72 |  | 

Continued, in another order:

log p (HCOOH) [1] | Structure (SMILES) | activity (mortality of larvae) (Aedes aegypti larvae) | activity (mortality of eggs) (Heliotis virescens)
1.87 | CCN(C)C=Nc1ccc(-c2ccc(C=NOC)cc2)cc1Cl [Compound 64] |  | 
1.86 | CCN(C)C=Nc1ccc(-c2ccc(OC)c(C)c2)cc1Cl [Compound 115] |  | 
2.01 | CCN(C)C=Nc1cc(C)c(-c2ccc(C)cc2)cc1C [Compound 131] |  | 
2.00 | CCN(C)C=Nc1ccc(-c2ccc(F)c(Cl)c2)cc1C [Compound 5] |  | 
1.54 | CCN(C)C=Nc1cc(C)c(-c2ccc(C#N)cc2)cc1C [Compound 136] |  | 
2.36 | CCN(C)C=Nc1ccc(-c2ccc(F)c(Cl)c2)cc1C(F)(F)F [Compound 4] |  | 
2.57 | CCN(C)C=Nc1ccc(-c2ccc(Cl)c(Cl)c2)cc1C(F)(F)F [Compound 81] |  | 
2.32 | CCN(C)C=Nc1ccc(-c2ccc(Cl)cc2Cl)cc1Cl [Compound 69] |  | 
1.50 | CCN(C)C=Nc1ccc(-c2ccc(F)cc2)cc1F [Compound 15] |  | 
2.18 | CCN(C)C=Nc1cc(C)c(-c2ccc(Cl)cc2)cc1C [Compound 125] |  | 
1.69 | CCN(C)C=Nc1ccc(-c2ccc(F)cc2)cc1Cl [Compound 13] |  | 
1.89 | CCN(C)C=Nc1ccc(-c2ccc(F)c(F)c2)cc1C [Compound 34] |  | 
1.83 | CCN(C)C=Nc1ccc(-c2ccc(F)c(F)c2)cc1Cl [Compound 68] |  | 
2.34 | CCN(C)C=Nc1cc(C)c(-c2ccc(C(C)C)cc2)cc1C [Compound 155] |  | 
1.71 | CCN(C)C=Nc1ccc(-c2ccc(OC)cc2)cc1Cl [Compound 70] |  | 
2.24 | CCN(C)C=Nc1cc(C)c(-c2ccc(Cl)cc2C)cc1C [Compound 112] |  | 
2.37 | CCN(C)C=Nc1cc(C)c(-c2ccc(C)c(Cl)c2)cc1C [Compound 146] |  | 
1.65 | CCN(C)C=Nc1ccc(-c2ccc(COC)cc2)cc1Cl [Compound 73] |  | 
2.59 | CCN(C)C=Nc1cc(C)c(-c2ccc(C(F)(F)F)c(Cl)c2)cc1C [Compound 142] |  | 
1.99 | CCN(C)C=Nc1ccc(-c2ccc(C(F)(F)F)cc2)cc1Cl [Compound 24] |  | 
2.00 | CCN(C)C=Nc1ccc(-c2ccc(C(C)=NOC)cc2)cc1Cl [Compound 65] |  | 
2.29 | CCN(C)C=Nc1ccc(-c2ccc(F)c(F)c2F)cc1C(F)(F)F [Compound 79] |  | 
